Test results: patent US4071559A, “Pharmaceutically active 2-omega-aminoalkoxydiphenyls” (Mitsubishi Chemical Industries Limited, priority 1975, dated 1978)
Structures can show the parent of a compound that is named as a salt.

How the values were obtained:
[1] = test system: reserpine induced hypothermia; experiment: Antagonism of reserpine induced hypothermia in mice (antireserpine / antidepressant activity); assay type: in vivo; conditions: i.p.; for Antireserpine activity, Relative Potency: reserpine 5 mg/kg i.p., Amitriptyline = 1
Experimental: (§1) The compounds were administered intraperitoneally and the activities of the compounds were compared with those of Amitriptyline.

[2] = test system: tremorine induced tremor; experiment: Tremorine induced tremor in mice (central anticholinergic effect); assay type: in vivo; conditions: for ED50: Mus musculus, ip, tremorine induced tremor, read-out: Antitremorine Effect ED50
Experimental: as §1

[3] = test system: electroshock induced tonic extensor; experiment: Antagonism of electroshock induced tonic extensor (anticonvulsant activity); assay type: in vivo; conditions: Mus musculus, ip; mice; dose which prevents 50% of response
[4] = test system: spontaneous motor activity; experiment: Spontaneous motor activity by ANIMEX apparatus (CNS depressant activity); assay type: in vivo; conditions: Mus musculus, ip, mice, i.p., read-out: Spontaneous Motor Activity Depression ED50
[5] = in vivo; conditions: mouse, ip
[6] = test system: neurological deficit; experiment: Traction test (neurological deficit; muscle relaxant action; CNS depressant activity); assay type: in vivo; conditions: mice; for ED50: Mus musculus, ip, traction test
[7] = test system: mice; conditions: i.p., compared with Amitriptyline

SMILES	Antireserpine activity, Relative Potency [1]	ED50 [2] [mg/kg]	ED50 [3] [mg/kg]	ED50 [4] [mg/kg]	LD50 [5] [mg/kg]	ED50 [6] [mg/kg]	antireserpine activity (in words) ([1]; compared with Amitriptyline)	anticholinergic action (in words) ([2]; i.p., compared with Amitriptyline)	toxicity (in words) [7]	CNS depressant action (in words) ([6]; i.p., traction test and spontaneous motor activity)
NCCCCOc1ccccc1-c1ccccc1 [2-(4-aminobutoxy)diphenyl hydrochloride]	0.59	60	14	40	137	50				
CN(C)CCCCOc1ccccc1-c1ccccc1 [2-(4-dimethylaminobutoxy)diphenyl hydrochloride]	0.45				100					
CNCCCCOc1ccccc1-c1ccccc1 [2-(4-methylaminobutoxy)diphenyl hydrochloride]	0.99	20	14	30	78	40	comparable to that of Amitriptyline	weak	low toxicity	weak
